Experimental data: patent US9067934B2, “Bicyclic pyridinones” (Pfizer Inc., priority 2011, dated 2015)

System: production of amyloid beta protein Aβ(1-42) (γ-secretase) in human WT-APP overexpressing CHO cells
Experiment: Cell-Based γ-Secretase Assay with ELISA Readout
Conditions: human WT-APP overexpressing CHO cells, ~24 hours at 37° C., Aβ(1-42) ELISA; footnotes: a = geometric mean of >15 determinations, b = single determination, c = geometric mean of 7-15 determinations; read-out: Aβ 42B IC50 (Geometric Mean of 2-6 Determinations)
How it was run: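 Human WT-APP-overexpressing CHO cells were pre-cultured 24 h at 37° C, then exposed to compounds (eleven-point half-log series, 1% final DMSO) for ~24 h. Aβ(1-42) in conditioned media was captured with Aβ(1-42)-specific antibody and detected with Eu-labeled 6e10 by DELFIA TRF. IC50 by nonlinear regression against min/max inhibition controls.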

Cc1cn(-c2ccc3n(c2=O)CCN(C(C)C(C)Oc2ccccc2S(F)(F)(F)(F)F)C3=O)cn1 (stereo not shown) [Example 123, 7-(4-methyl-1H-imidazol-1-yl)-2-{3-[2-(pentafluoro-λ^6-sulfanyl)phenoxy]butan-2-yl}-3,4-dihydro-2H-pyrido[1,2-a]pyrazine-1,6-dione]
IC50: 106 nM
